{"source": "PubChem BioAssay AID1259407", "about": "(Chemical Carcinogenesis Research Information System (CCRIS), 2018)", "system": "CCRIS mutagenicity, Ames/micronucleus/aberration tests", "assay": "CCRIS mutagenicity studies", "key": {"[1]": {"conditions": "Test System: AMES SALMONELLA TYPHIMURIUM, Strain/Indicator: TA97, Metabolic Activation: HAMSTER, LIVER, S-9, AROCLOR 1254 (10 OR 30%), Method: PREINCUBATION"}, "[2]": {"conditions": "Test System: AMES SALMONELLA TYPHIMURIUM, Strain/Indicator: TA97, Metabolic Activation: NONE, Method: PREINCUBATION"}, "[3]": {"conditions": "Test System: AMES SALMONELLA TYPHIMURIUM, Strain/Indicator: TA97, Metabolic Activation: RAT, LIVER, S-9, AROCLOR 1254 (10 OR 30%), Method: PREINCUBATION"}, "[4]": {"conditions": "Test System: AMES SALMONELLA TYPHIMURIUM, Strain/Indicator: TA98, Metabolic Activation: HAMSTER, LIVER, S-9, AROCLOR 1254 (10 OR 30%), Method: PREINCUBATION"}, "[5]": {"conditions": "Test System: AMES SALMONELLA TYPHIMURIUM, Strain/Indicator: TA98, Metabolic Activation: NONE, Method: PREINCUBATION"}, "[6]": {"conditions": "Test System: AMES SALMONELLA TYPHIMURIUM, Strain/Indicator: TA98, Metabolic Activation: RAT, LIVER, S-9, AROCLOR 1254 (10 OR 30%), Method: PREINCUBATION"}, "[7]": {"conditions": "Test System: AMES SALMONELLA TYPHIMURIUM, Strain/Indicator: TA100, Metabolic Activation: HAMSTER, LIVER, S-9, AROCLOR 1254 (10 OR 30%), Method: PREINCUBATION"}, "[8]": {"conditions": "Test System: AMES SALMONELLA TYPHIMURIUM, Strain/Indicator: TA100, Metabolic Activation: NONE, Method: PREINCUBATION"}, "[9]": {"conditions": "Test System: AMES SALMONELLA TYPHIMURIUM, Strain/Indicator: TA100, Metabolic Activation: RAT, LIVER, S-9, AROCLOR 1254 (10 OR 30%), Method: PREINCUBATION"}, "[10]": {"conditions": "Test System: AMES SALMONELLA TYPHIMURIUM, Strain/Indicator: TA1535, Metabolic Activation: HAMSTER, LIVER, S-9, AROCLOR 1254 (10 OR 30%), Method: PREINCUBATION"}, "[11]": {"conditions": "Test System: AMES SALMONELLA TYPHIMURIUM, Strain/Indicator: TA1535, Metabolic Activation: NONE, Method: PREINCUBATION"}, "[12]": {"conditions": "Test System: AMES SALMONELLA TYPHIMURIUM, Strain/Indicator: TA1535, Metabolic Activation: RAT, LIVER, S-9, AROCLOR 1254 (10 OR 30%), Method: PREINCUBATION"}, "[13]": {"conditions": "Test System: AMES SALMONELLA TYPHIMURIUM, Strain/Indicator: TA1537, Metabolic Activation: NONE, Method: PREINCUBATION"}, "[14]": {"conditions": "Test System: AMES SALMONELLA TYPHIMURIUM, Strain/Indicator: TA98, Metabolic Activation: NONE, Method: STANDARD PLATE"}, "[15]": {"conditions": "Test System: AMES SALMONELLA TYPHIMURIUM, Strain/Indicator: TA100, Metabolic Activation: NONE, Method: STANDARD PLATE"}}, "note": "The source made the active and inactive calls. How the calls were made is not given here.", "data": [{"smiles": "O=C(O)CS", "values": [{"measurement": "mutagenic call", "setting": "[1]", "value": "inactive; negative"}, {"measurement": "mutagenic call", "setting": "[2]", "value": "inactive; negative"}, {"measurement": "mutagenic call", "setting": "[3]", "value": "inactive; negative"}, {"measurement": "mutagenic call", "setting": "Test System: AMES SALMONELLA TYPHIMURIUM, Strain/Indicator: TA98, Metabolic Activation: HAMSTER, LIVER, S-9, AROCLOR 1254 (10%), Method: PREINCUBATION", "value": "inactive; negative"}, {"measurement": "mutagenic call", "setting": "[4]", "value": "inactive; negative"}, {"measurement": "mutagenic call", "setting": "[5]", "value": "inactive; negative"}, {"measurement": "mutagenic call", "setting": "Test System: AMES SALMONELLA TYPHIMURIUM, Strain/Indicator: TA98, Metabolic Activation: RAT, LIVER, S-9, AROCLOR 1254 (10%), Method: PREINCUBATION", "value": "inactive; negative"}, {"measurement": "mutagenic call", "setting": "[6]", "value": "inactive; negative"}, {"measurement": "mutagenic call", "setting": "Test System: AMES SALMONELLA TYPHIMURIUM, Strain/Indicator: TA100, Metabolic Activation: HAMSTER, LIVER, S-9, AROCLOR 1254 (10%), Method: PREINCUBATION", "value": "inactive; negative"}, {"measurement": "mutagenic call", "setting": "[7]", "value": "inactive; negative"}, {"measurement": "mutagenic call", "setting": "[8]", "value": "inactive; negative"}, {"measurement": "mutagenic call", "setting": "Test System: AMES SALMONELLA TYPHIMURIUM, Strain/Indicator: TA100, Metabolic Activation: RAT, LIVER, S-9, AROCLOR 1254 (10%), Method: PREINCUBATION", "value": "inactive; negative"}, {"measurement": "mutagenic call", "setting": "[9]", "value": "inactive; negative"}, {"measurement": "mutagenic call", "setting": "Test System: AMES SALMONELLA TYPHIMURIUM, Strain/Indicator: TA1535, Metabolic Activation: HAMSTER, LIVER, S-9, AROCLOR 1254 (10%), Method: PREINCUBATION", "value": "inactive; negative"}, {"measurement": "mutagenic call", "setting": "[10]", "value": "inactive; negative"}, {"measurement": "mutagenic call", "setting": "[11]", "value": "inactive; negative"}, {"measurement": "mutagenic call", "setting": "Test System: AMES SALMONELLA TYPHIMURIUM, Strain/Indicator: TA1535, Metabolic Activation: RAT, LIVER, S-9, AROCLOR 1254 (10%), Method: PREINCUBATION", "value": "inactive; negative"}, {"measurement": "mutagenic call", "setting": "[12]", "value": "inactive; negative"}, {"measurement": "mutagenic call", "setting": "Test System: AMES SALMONELLA TYPHIMURIUM, Strain/Indicator: TA1537, Metabolic Activation: HAMSTER, LIVER, S-9, AROCLOR 1254 (10%), Method: PREINCUBATION", "value": "inactive; negative"}, {"measurement": "mutagenic call", "setting": "[13]", "value": "inactive; negative"}, {"measurement": "mutagenic call", "setting": "Test System: AMES SALMONELLA TYPHIMURIUM, Strain/Indicator: TA1537, Metabolic Activation: RAT, LIVER, S-9, AROCLOR 1254 (10%), Method: PREINCUBATION", "value": "inactive; negative"}]}, {"smiles": "CC(C)=CCc1ccc(O)c2c(=O)c3c(O)c4c(cc3oc12)O[C@H]1OC=C[C@@]41O", "values": [{"measurement": "mutagenic call", "setting": "[14]", "value": "active; positive"}, {"measurement": "mutagenic call", "setting": "Test System: AMES SALMONELLA TYPHIMURIUM, Strain/Indicator: TA98, Metabolic Activation: RAT, LIVER, S-9, AROCLOR 1254, Method: STANDARD PLATE", "value": "active; positive"}, {"measurement": "mutagenic call", "setting": "[15]", "value": "active; positive"}, {"measurement": "mutagenic call", "setting": "Test System: AMES SALMONELLA TYPHIMURIUM, Strain/Indicator: TA100, Metabolic Activation: RAT, LIVER, S-9, AROCLOR 1254, Method: STANDARD PLATE", "value": "active; positive"}]}, {"smiles": "C#CC(OC(=O)NC1CCCCC1)(c1ccccc1)c1ccccc1", "values": [{"measurement": "mutagenic call", "setting": "[15]", "value": "active; positive"}]}, {"smiles": "CC1=C(Cl)C(=O)NC1=O", "values": [{"measurement": "mutagenic call", "setting": "[15]", "value": "inactive; negative"}]}, {"smiles": "Clc1ccccc1-c1nc2ccccc2o1", "values": [{"measurement": "mutagenic call", "setting": "[14]", "value": "inactive; negative"}, {"measurement": "mutagenic call", "setting": "Test System: AMES SALMONELLA TYPHIMURIUM, Strain/Indicator: TA98, Metabolic Activation: S-9, Method: STANDARD PLATE", "value": "inactive; negative"}]}, {"smiles": "O=C(OOC(=O)c1ccccc1)c1ccccc1", "values": [{"measurement": "mutagenic call", "setting": "[1]", "value": "inactive; negative"}, {"measurement": "mutagenic call", "setting": "[2]", "value": "inactive; negative"}, {"measurement": "mutagenic call", "setting": "[3]", "value": "inactive; negative"}, {"measurement": "mutagenic call", "setting": "Test System: AMES SALMONELLA TYPHIMURIUM, Strain/Indicator: TA97, Metabolic Activation: RAT, LIVER, S-9, AROCLOR 1254, Method: PREINCUBATION", "value": "inactive; negative"}, {"measurement": "mutagenic call", "setting": "Test System: AMES SALMONELLA TYPHIMURIUM, Strain/Indicator: TA97A, Metabolic Activation: NONE, Method: PREINCUBATION", "value": "inactive; negative"}, {"measurement": "mutagenic call", "setting": "Test System: AMES SALMONELLA TYPHIMURIUM, Strain/Indicator: TA97A, Metabolic Activation: RAT LIVER S-9, AROCLOR 1254, Method: PREINCUBATION", "value": "inactive; negative"}, {"measurement": "mutagenic call", "setting": "[4]", "value": "inactive; negative"}, {"measurement": "mutagenic call", "setting": "[5]", "value": "inactive; negative"}, {"measurement": "mutagenic call", "setting": "Test System: AMES SALMONELLA TYPHIMURIUM, Strain/Indicator: TA98, Metabolic Activation: RAT LIVER S-9, PHENOBARBITAL AND BETA-NAPHTHOFLAVONE, Method: PREINCUBATION", "value": "inactive; negative"}, {"measurement": "mutagenic call", "setting": "[6]", "value": "inactive; negative"}, {"measurement": "mutagenic call", "setting": "[7]", "value": "inactive; negative"}, {"measurement": "mutagenic call", "setting": "[8]", "value": "inactive; negative"}, {"measurement": "mutagenic call", "setting": "Test System: AMES SALMONELLA TYPHIMURIUM, Strain/Indicator: TA100, Metabolic Activation: RAT LIVER S-9, AROCLOR 1254, Method: PREINCUBATION", "value": "inactive; negative"}, {"measurement": "mutagenic call", "setting": "Test System: AMES SALMONELLA TYPHIMURIUM, Strain/Indicator: TA100, Metabolic Activation: RAT LIVER S-9, PHENOBARBITAL AND BETA-NAPHTHOFLAVONE, Method: PREINCUBATION", "value": "inactive; negative"}, {"measurement": "mutagenic call", "setting": "[9]", "value": "inactive; negative"}, {"measurement": "mutagenic call", "setting": "Test System: AMES SALMONELLA TYPHIMURIUM, Strain/Indicator: TA102, Metabolic Activation: NONE, Method: PREINCUBATION", "value": "inactive; negative"}, {"measurement": "mutagenic call", "setting": "Test System: AMES SALMONELLA TYPHIMURIUM, Strain/Indicator: TA102, Metabolic Activation: RAT LIVER S-9, AROCLOR 1254, Method: PREINCUBATION", "value": "inactive; negative"}, {"measurement": "mutagenic call", "setting": "Test System: AMES SALMONELLA TYPHIMURIUM, Strain/Indicator: TA102, Metabolic Activation: RAT, LIVER, S-9, AROCLOR 1254, Method: PREINCUBATION", "value": "inactive; negative"}, {"measurement": "mutagenic call", "setting": "Test System: AMES SALMONELLA TYPHIMURIUM, Strain/Indicator: TA104, Metabolic Activation: NONE, Method: PREINCUBATION", "value": "inactive; negative"}, {"measurement": "mutagenic call", "setting": "Test System: AMES SALMONELLA TYPHIMURIUM, Strain/Indicator: TA104, Metabolic Activation: RAT LIVER S-9, AROCLOR 1254, Method: PREINCUBATION", "value": "inactive; negative"}, {"measurement": "mutagenic call", "setting": "[10]", "value": "inactive; negative"}, {"measurement": "mutagenic call", "setting": "[11]", "value": "inactive; negative"}, {"measurement": "mutagenic call", "setting": "Test System: AMES SALMONELLA TYPHIMURIUM, Strain/Indicator: TA1535, Metabolic Activation: RAT LIVER S-9, PHENOBARBITAL AND BETA-NAPHTHOFLAVONE, Method: PREINCUBATION", "value": "inactive; negative"}, {"measurement": "mutagenic call", "setting": "[12]", "value": "inactive; negative"}, {"measurement": "mutagenic call", "setting": "[13]", "value": "inactive; negative"}, {"measurement": "mutagenic call", "setting": "Test System: AMES SALMONELLA TYPHIMURIUM, Strain/Indicator: TA1537, Metabolic Activation: RAT LIVER S-9, PHENOBARBITAL AND BETA-NAPHTHOFLAVONE, Method: PREINCUBATION", "value": "inactive; negative"}, {"measurement": "mutagenic call", "setting": "Test System: E.COLI, Strain/Indicator: WP2UVRA/PKM101, Metabolic Activation: NONE, Method: PREINCUBATION", "value": "inactive; negative"}, {"measurement": "mutagenic call", "setting": "Test System: E.COLI, Strain/Indicator: WP2UVRA/PKM101, Metabolic Activation: RAT LIVER S-9, PHENOBARBITAL AND BETA-NAPHTHOFLAVONE, Method: PREINCUBATION", "value": "inactive; negative"}]}]}
